We go through 41 compounds from ChEMBL document CHEMBL1201862, “PubChem BioAssay data set” (2004).

Calls of active or inactive are those of the source. Cut-off read from the data, not from the text of the source, for most assays here: actives have a measured EC50 and inactives only a lower limit.

As a reminder, the AC50 is the concentration at which the activity in the assay is half-maximal. For orientation: EC50 means the concentration at which the effect is half-maximal.

A short description of test [1]: Luminescence Cell-Based Dose Retest to Confirm Inhibitors of Cancer Stem Cells. [Related pubchem assays (depositor defined):AID2717, AID2721]. Type of test: functional. To be noted: Homo sapiens.
The subject of test [2] is Streptococcus sp. 'group A'. Nature of the test: Streptococcus pyogenes SK(-)GAS viability under kanamycin – luminescence, BacTiterGlo, confirmation, counter-screen for streptokinase expression inhibitor project, dose response (AID 1900). Type of test: functional, organism-based.
For test [3], the target named is T1, Streptokinase A (Streptococcus pyogenes serotype M1, UniProt P10520).
T1 sequence (P10520 whole entry): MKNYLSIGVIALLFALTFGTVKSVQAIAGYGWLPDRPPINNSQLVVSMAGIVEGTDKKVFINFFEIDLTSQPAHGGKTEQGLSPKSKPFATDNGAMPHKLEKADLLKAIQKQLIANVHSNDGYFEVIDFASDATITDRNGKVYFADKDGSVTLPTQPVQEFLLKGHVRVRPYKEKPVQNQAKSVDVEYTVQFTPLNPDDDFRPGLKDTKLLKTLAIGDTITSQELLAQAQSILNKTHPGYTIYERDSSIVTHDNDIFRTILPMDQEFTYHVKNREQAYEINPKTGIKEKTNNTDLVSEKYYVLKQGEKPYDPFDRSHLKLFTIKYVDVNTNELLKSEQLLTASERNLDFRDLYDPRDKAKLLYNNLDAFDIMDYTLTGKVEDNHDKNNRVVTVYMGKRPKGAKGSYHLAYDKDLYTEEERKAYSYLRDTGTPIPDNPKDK
In words: viability-normalized secreted streptokinase activity reduction – plasminogen activation absorbance, OD405, dose response (AID 1914).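 Note: secreted streptokinase activity via plasminogen activation per viability signal from cell pellet.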 The test is classed as functional, Streptococcus pyogenes M1 GAS.

Test [4] has as its system Streptococcus. Nature of the test: GAS UMAA2166 growth inhibition – luminescence, BacTiterGlo, counter-screen for streptokinase expression inhibitor project, dose response (AID 1915).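 Note: potency for reduction of bacterial viability or growth.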 Type of test: functional, organism-based. (The purpose of a counterscreen is to sort out artefacts and off-target activity.)
Test [5] can be described thus: Trypanosoma cruzi growth suppression in host cells – NIH3T3 host cells, beta-gal luminescence, confirmation (AID 2044).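 Note: intracellular parasites grown in NIH/3T3 mouse fibroblasts as host cells; luminescent beta-galactosidase reporter signal from transgenic T. cruzi replicating inside host cells; inhibitors lower the luminescence signal.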 The test is classed as functional, cell-based.
Test [6] can be described thus: NIH3T3 cell viability loss – ATP luminescence, mouse fibroblasts, counter-screen, dose response (AID 2010).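 Note: cells exposed to compound for about 90 hours before reading.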 The test is classed as functional, cell-based.
Test [7] concerns the target T2, Cytochrome P450 1A2 (Homo sapiens, UniProt P05177).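 Note: PubChem cytochrome P450 panel assay, CYP1A2 panel member.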
T2 sequence (P05177 whole entry): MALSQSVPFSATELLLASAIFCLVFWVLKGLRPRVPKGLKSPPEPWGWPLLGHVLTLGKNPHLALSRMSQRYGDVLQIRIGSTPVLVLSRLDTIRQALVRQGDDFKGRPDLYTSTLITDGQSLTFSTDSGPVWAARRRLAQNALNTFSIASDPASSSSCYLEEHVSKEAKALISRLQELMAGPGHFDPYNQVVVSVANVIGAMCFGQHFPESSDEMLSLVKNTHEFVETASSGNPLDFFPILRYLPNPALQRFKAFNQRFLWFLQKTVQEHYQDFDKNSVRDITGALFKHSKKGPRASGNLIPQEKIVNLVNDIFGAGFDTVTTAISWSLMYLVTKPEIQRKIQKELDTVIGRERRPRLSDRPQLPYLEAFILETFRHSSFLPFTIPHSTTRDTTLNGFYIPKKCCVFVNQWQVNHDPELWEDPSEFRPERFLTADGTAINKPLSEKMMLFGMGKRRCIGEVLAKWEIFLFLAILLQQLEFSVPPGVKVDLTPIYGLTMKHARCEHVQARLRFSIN

Consider `COc1cc2c(cc1NC(=O)CN(C)Cc1cccc(OC)c1OC)oc1ccccc12`, for which the AC50 in test [1] was 2.86 µM (active).
In the case of `CCN(CC)C1CCN(C(=O)c2cc(COc3ccc(F)cc3Cl)on2)C1` (stereo unspecified), the AC50 in test [1] was 1.21 µM (active).
Consider `C=CCc1cccc(/C=N/NC(=O)C(=O)Nc2ccc(C)cc2)c1O`, for which the EC50 in test [2], in test [3] and in test [4] was > 150 µM (not active) throughout.
With `CC[C@H]1OC(=O)C[C@@H](O)[C@H](C)[C@@H](O[C@@H]2O[C@H](C)C[C@H](N(C)C)[C@H]2O)[C@@H](CC=O)C[C@@H](C)C(=O)C=C[C@]2(C)O[C@H]2[C@@H]1C`, the EC50 in test [2] and in test [4] was < 0.06 µM (active) each time.
Turning to `Cc1cccc(/C=N/NC(=O)Cc2ccc(Cl)cc2)c1O`, the EC50 in test [2] was 4.52 µM (active); in test [4], 7.4 µM (active).
For the compound `O=C(/C=C/c1cccc(F)c1)NC1CCN(Cc2ccccc2)CC1`, the values for the EC50 in test [5] and in test [6] were 0.102 µM (active) and > 60 µM (not active), respectively.
For `CN(C)CCCN(C(=O)c1ccco1)c1nc2c(F)cc(F)cc2s1`, in that order: 0.101 µM (active) and > 60 µM (not active).
For `c1ccc(N2N=C(c3cccs3)CC2c2ccco2)cc1` (stereo unspecified), the EC50 in test [2] was > 150 µM (not active); in test [3], 40.1 µM (active); in test [4], > 150 µM (not active).
With `CC(=O)c1ccc(N2CCN(S(=O)(=O)c3cc(-c4cc(C)no4)ccc3C(C)C)CC2)cc1`, the AC50 in test [1] was < 0.16 µM (active).
Turning to `O=C(Nc1cccc(Cl)c1N1CCCCC1)c1ccc2c(c1)OCCO2`, the values for the EC50 in test [2], in test [3] and in test [4] were 9.41 µM (active), > 150 µM (not active) and > 150 µM (not active), respectively. Also, the AC50 in test [1] is 7.74 µM (active).
On to `CCCCCCCCCCCCCCCCCCc1ccc(C(=O)/C=C\C(=O)O)cc1`, for which the AC50 in test [7] is 31.6 µM (inconclusive).
Regarding `Cc1ccc(CCNc2c([N+](=O)[O-])nn(-c3ccccc3)[n+]2[O-])cc1`, the values for the concentration giving a half-maximal response (EC50) in test [5] and in test [6] were 1.15 µM (active) and > 30 µM (not active), respectively.
In the case of `COc1ccc(C2CC(C)(c3ccc(OC)cc3OC)Nc3ccccc3N2)c(OC)c1` (stereo unspecified), the EC50 in test [5] is 1.96 µM (active); in test [6], > 60 µM (not active).
Take `C1CCC(C(C[C@@H]2CCCCN2)C2CCCCC2)CC1`: the AC50 in test [7] was 6.31 µM (inconclusive).
Take `CC(NNc1ccccc1)=C1C(=O)NC(=O)NC1=O`: the AC50 in test [1] is 1.02 µM (active).
As to `COc1cccc(N2C(=O)C3NN=C(C(=O)CN4C(=O)c5ccccc5C4=O)C3C2=O)c1` (stereo unspecified), the EC50 in test [2], in test [3] and in test [4] was > 150 µM (not active) in each case.
As for `CCCCn1c(=O)c(C(=O)NCCc2ccccc2)c(O)c2ccccc21`, the EC50 in test [2] was 26.4 µM (active); in test [3] it was 30.9 µM (active); in test [4], > 150 µM (not active).
With `Cc1cc(C)c(OCC(=O)Nc2ccccc2N2CCCCC2)c(C)c1`, the EC50 in test [2] was 25.7 µM (active); in test [3], 4.09 µM (active); in test [4], 15.7 µM (active).
For `CCOC(=O)N1CCC(n2c(SCC(=O)Nc3ccccc3OC)nc3ccccc3c2=O)CC1`, the EC50 was 5.24 µM (active) in test [5] and > 60 µM (not active) in test [6].
For `Cc1cc(SCC(=O)N/N=C/c2ccc(O)cc2O)nc2ccccc12`, the EC50 is 1.71 µM (active) in test [5] and 18.8 µM (active) in test [6]. Further, the AC50 in test [1] was 4.06 µM (active).
In the case of `Cc1cccc(OCCCOc2cccc3cccnc23)c1C`, the EC50 in test [2] is 16.9 µM (active); in test [3], > 150 µM (not active); in test [4] it was > 150 µM (not active).
Take `CCOc1ccc(CN2CCN(Cc3[nH]c4ccc(OC)cc4c3C)CC2CCO)cc1` (stereo unspecified): the results for the EC50 in test [5] and in test [6] were 0.141 µM (active) and > 60 µM (not active), respectively.
Take `CCOC(=O)c1ccc(N2C(=O)/C(=C\NNC(=O)C3COc4ccccc4O3)c3ccccc3C2=O)cc1` (stereo unspecified): the values for the EC50 in test [2] and in test [4] were 1.02 µM (active) and 4.31 µM (active), respectively.
For `COC(=O)c1ccc(/C=C/c2c(-c3ccsc3)sc3ccccc23)cc1`, in test [1], the AC50 was 4.12 µM (active).
`CCNc1ncc2nc(-c3cn(C)c4ccccc34)c(=O)n(C[C@H]3CCCO3)c2n1`: the AC50 in test [7] is 10 µM (inconclusive).
Consider `O=C(NNC(=S)NC(=O)c1ccc(Br)cc1)c1cccc([N+](=O)[O-])c1`, for which the concentration for a half-maximal effect (EC50) in test [2] was 2.41 µM (active); in test [3], > 150 µM (not active); in test [4], 9.6 µM (active).
With `FC(F)(F)c1cccc(NC(S)=Nc2ccc(Cl)c(Cl)c2)c1`, the concentration for a half-maximal effect (EC50) was 2.45 µM (active) in test [2] and 6.78 µM (active) in test [4].
For `COc1ccc(NC2=NN=C(c3c(C)[nH]c4ccccc34)CS2)cc1`, the values for the EC50 in test [2], in test [3] and in test [4] were 3.9 µM (active), > 150 µM (not active) and 13 µM (active), respectively. The AC50 in test [1] was 7.35 µM (active).
For the compound `Cc1ccc(C(=O)C(c2ccccc2)N2Cc3ccccc3C2=N)cc1` (stereo unspecified), the figures for the EC50 in test [2], in test [3] and in test [4] were 5.37 µM (active), 4.15 µM (active) and > 150 µM (not active), respectively.
With `O=C(O)c1ccc(NC(=S)NC(=O)c2cccc(COc3ccccc3)c2)cc1`, the EC50 is 18.6 µM (active) in test [2] and 38 µM (active) in test [4].
Consider `Cn1c(Sc2ccccc2Cl)c(C=O)c2ccccc21`, for which the figures for the EC50 in test [2], in test [3] and in test [4] were 27.1 µM (active), 32.3 µM (inconclusive) and > 150 µM (not active), respectively.
`FC(F)(F)c1cccc(NC(=S)Nc2ccc(Cl)c(Cl)c2)c1`: in test [3], the EC50 was > 150 µM (not active).
With `O=C(N/N=C/c1cn(-c2cccs2)nc1-c1ccccc1)c1ccc(O)cc1`, in test [1], the AC50 was 8.96 µM (active).
Regarding `Cc1ccccc1/C=N/Nc1nc2ccccc2[nH]1`, the EC50 in test [2] is 146 µM (active); in test [3] it was > 150 µM (not active); in test [4] it was > 150 µM (not active).
For `CC(=O)OCC1=C(C(=O)O)N2C(=O)C(NC(=O)CCn3nc(C)c(Cl)c3C)C2SC1` (stereo unspecified), the EC50 in test [2] was 2.13 µM (active); in test [4] it was 1.31 µM (active).
For the compound `Cc1[nH]c2ccc(F)cc2c1CCN(Cc1cccnc1)C(S)=Nc1cccc(F)c1`, the EC50 in test [5] was 0.608 µM (active); in test [6], > 30 µM (not active).
With `CC12CN3CC(C)(CN(C1)C31CCSCC1)C2=O`, the AC50 in test [7] is 12.6 µM (inconclusive).
With `CCOC(=O)N1CCC(N2Cc3cccc(C(=O)Nc4ccc(F)cc4)c3C2=O)CC1`, the EC50 was 4.41 µM (active) in test [2], > 150 µM (not active) in test [3] and > 150 µM (not active) in test [4].
`Cc1cccc(CN2CCN(C(c3ccccc3)c3ccc(Cl)cc3)CC2)c1` (stereo unspecified) [MECLIZINE DIHCL]: the AC50 in test [1] is 3.57 µM (active).
Turning to `CC1CCN(c2ccccc2NC(=O)c2cc3ccccc3o2)CC1`, the EC50 in test [2] was 8.15 µM (active); in test [3], 25.2 µM (active); in test [4] it was 42.4 µM (active).
With `CC(C)(c1ccc(OC[C@@H]2CO2)cc1)c1ccc(OC[C@H]2CO2)cc1`, the AC50 in test [7] is 31.6 µM (inconclusive).
